Measured values: paper PMC6037002, “Drug targeting to decrease cardiotoxicity – determination of the cytotoxic effect of GnRH-based conjugates containing doxorubicin, daunorubicin and methotrexate on human cardiomyocytes and endothelial cells” (Beilstein Journal of Organic Chemistry, 2018)
Where two headings read alike, the source gives them in different places.

Experiments:
[1] = tested on: human umbilical vein endothelial cells (HUVEC); assay: Impedimetric measurement (xCELLigence SP), delta slope, HUVEC; conditions: HUVEC, three parallels; for delta slope (DS), short-term: 0–2 h; for delta slope (DS), long-term: 0–72 h
[2] = tested on: primary human cardiac myocytes (HCM); conditions: HCM, three parallels; for delta slope (DS), short-term: 0–2 h; for delta slope (DS), long-term: 0–72 h
[3] = tested on: MCF-7 human breast adenocarcinoma cells; conditions: MTT assay; cited from earlier work
Text: (§1) Table 1 Comparative study of cytotoxic effects and cardiotoxicity elicited by GnRH-based antitumor compounds (1–15) and reference substances (AN-152, Dox, Dau, Mtx). IC50 values show antitumor cytotoxic characteristics of the conjugates in human breast cancer (MCF-7), human colorectal adenocarcinoma (HT-29) and human acute monocytic leukemia (MM6) derived cell lines as representative tumor cells.

[4] = tested on: human acute monocytic leukemia (MonoMac6) cells; conditions: cited from earlier work
Text: as §1

[5] = tested on: HT-29 human colon adenocarcinoma cells; conditions: MTT assay; cited from earlier work
Text: as §1

COc1cccc2c1C(=O)c1c(O)c3c(c(O)c1C2=O)C[C@@](O)(C(C)=O)C[C@@H]3O[C@H]1C[C@H](N)[C@H](O)[C@H](C)O1 [daunorubicin]
delta slope (DS), short-term ([1]; Table S1a, 10^-6 mol/L): 0.047
delta slope (DS), short-term ([1]; Table S1a, 10^-7 mol/L): 0.055
delta slope (DS), short-term ([1]; Table S1a, 10^-8 mol/L): 0.018
delta slope (DS), short-term ([1]; Table S1a, 10^-9 mol/L): -0.008
delta slope (DS), short-term ([1]; Table S1a, 10^-10 mol/L): -0.008
delta slope (DS), short-term ([1]; Table S1a, 10^-11 mol/L): 0.008
delta slope (DS), short-term ([1]; Table S1a, 10^-12 mol/L): -0.005
delta slope (DS), long-term ([1]; Table S1a, 10^-6 mol/L): −0.019
delta slope (DS), long-term ([1]; Table S1a, 10^-6 mol/L, listed as Daunorubicin): -0.019
delta slope (DS), long-term ([1]; Table S1a, 10^-7 mol/L): −0.007
delta slope (DS), long-term ([1]; Table S1a, 10^-7 mol/L, listed as Daunorubicin): -0.007
delta slope (DS), long-term ([1]; Table S1a, 10^-8 mol/L): -0.001
delta slope (DS), long-term ([1]; Table S1a, 10^-9 mol/L): -0.00113
delta slope (DS), long-term ([1]; Table S1a, 10^-10 mol/L): 0.001
delta slope (DS), long-term ([1]; Table S1a, 10^-11 mol/L): 0.002
delta slope (DS), long-term ([1]; Table S1a, 10^-12 mol/L): -0.001
delta slope (DS), short-term ([1]; Table S3a, 10^-6 mol/L): 0.003
delta slope (DS), short-term ([1]; Table S3a, 10^-7 mol/L): -0.002
delta slope (DS), short-term ([1]; Table S3a, 10^-8 mol/L): -0.008
delta slope (DS), long-term ([1]; Table S3a, 10^-6 mol/L): -0.010
delta slope (DS), long-term ([1]; Table S3a, 10^-7 mol/L): 0.001
delta slope (DS), short-term ([1]; Table S4a, 10^-6 mol/L): 0.009
delta slope (DS), short-term ([1]; Table S4a, 10^-7 mol/L): 0.016
delta slope (DS), short-term ([1]; Table S4a, 10^-8 mol/L): 0.005
delta slope (DS), long-term ([1]; Table S4a, 10^-6 mol/L): -0.058
delta slope (DS), long-term ([1]; Table S4a, 10^-7 mol/L): 0.004
delta slope (DS), long-term ([1]; Table S4a, 10^-8 mol/L): 0.006
delta slope (DS), short-term ([2]; Table S1b, 10^-6 mol/L): 0.031
delta slope (DS), short-term ([2]; Table S1b, 10^-7 mol/L): -0.001
delta slope (DS), short-term ([2]; Table S1b, 10^-8 mol/L): 0.001
delta slope (DS), short-term ([2]; Table S1b, 10^-9 mol/L): -0.001
delta slope (DS), short-term ([2]; Table S1b, 10^-10 mol/L): -0.001
delta slope (DS), short-term ([2]; Table S1b, 10^-11 mol/L): -0.001
delta slope (DS), short-term ([2]; Table S1b, 10^-12 mol/L): -0.001
delta slope (DS), long-term ([2]; Table S1b, 10^-6 mol/L): −0.019
delta slope (DS), long-term ([2]; Table S1b, 10^-6 mol/L, listed as Daunorubicin): -0.019
delta slope (DS), long-term ([2]; Table S1b, 10^-7 mol/L): −0.007
delta slope (DS), long-term ([2]; Table S1b, 10^-7 mol/L, listed as Daunorubicin): -0.007
delta slope (DS), long-term ([2]; Table S1b, 10^-8 mol/L): -0.001
delta slope (DS), long-term ([2]; Table S1b, 10^-9 mol/L): -0.001
delta slope (DS), long-term ([2]; Table S1b, 10^-10 mol/L): -0.001
delta slope (DS), long-term ([2]; Table S1b, 10^-11 mol/L): -0.001
delta slope (DS), long-term ([2]; Table S1b, 10^-12 mol/L): -0.001
delta slope (DS), short-term ([2]; Table S3b, 10^-6 mol/L): 0.028
delta slope (DS), short-term ([2]; Table S3b, 10^-8 mol/L): -0.001
delta slope (DS), long-term ([2]; Table S3b, 10^-6 mol/L): -0.021
delta slope (DS), long-term ([2]; Table S3b, 10^-7 mol/L): -0.006
delta slope (DS), long-term ([2]; Table S3b, 10^-8 mol/L): -0.001
delta slope (DS), short-term ([2]; Table S4b, 10^-6 mol/L): 0.030
delta slope (DS), short-term ([2]; Table S4b, 10^-7 mol/L): -0.009
delta slope (DS), short-term ([2]; Table S4b, 10^-8 mol/L): -0.001
delta slope (DS), long-term ([2]; Table S4b, 10^-6 mol/L): -0.024
delta slope (DS), long-term ([2]; Table S4b, 10^-7 mol/L): -0.009
delta slope (DS), long-term ([2]; Table S4b, 10^-8 mol/L): -0.001
delta slope (DS), short-term ([2]; Table S5b, 10^-8 mol/L): -0.001
delta slope (DS), long-term ([2]; Table S5b, 10^-8 mol/L): -0.001
IC50 [3]: 400 ± 100 nM
IC50 [4]: 0.08 ± 0.1 nM
IC50 [5]: 300 ± 200 nM
